In patent US20080206819A1, “Intensified Perfusion Production Method” (priority 2006, published 2008):

Legend:
[1] = tested on: CHO (Chinese Hamster Ovary) cell-derived cell line; assay: Average daily recombinant protein production using RaMP, Example 5; assay type: cell-based
Description: Samples of harvested media were taken from the daily harvest and frozen. At the end of the production run, the frozen daily samples were tested using an anti-IgG (recognizing only intact IgG) ELISA assay in order to determine the protein yields. FIG. 1 is a graphical representation of the average daily yield of recombinant protein from both traditional perfusion and RaMP methods.
Cells were seeded at 5×10^5 cells/ml and were allowed to grow in the bioreactor for 6 days before the first harvest of recombinant protein on day 7. Conditions for this growth period are similar to those described in Example 1 above. Cells were grown in RBM12.1 media with a perfusion rate of 1 to 1.5 v/day. 1 mM sodium butyrate (final concentration) was added to perfusion medium and was perfused into the bioreactor on day 8. […] 2 mM sodium butyrate (final concentration) was added to the perfusion media and was perfused into the bioreactor on day 11. Cell viability was monitored daily by pulling samples from the bioreactor and trypan blue live/dead staining. Over the production run, the cell density reached upwards of 4.5×10^7 cells/ml. Using the RaMP method, the cell viability remained above 85% viable cells even with the sustained concentration of 2 mM sodium butyrate in the media. The average daily recombinant protein production reached over 0.6 g/L/day.

recombinant CHO cells [2] = details: sodium butyrate added in fluidized bed bioreactor; cited from earlier work
recombinant CHO cells [3] = details: perfusion culture; end of the production run, in most cases; cited from earlier work
[4] = tested on: CHO (Chinese Hamster Ovary) cell-derived cell line; assay: Cell viability during production period, Example 4 (RaMP); assay type: cell-based; details: RaMP: 0.5 mM sodium butyrate day 10, 1.0 mM day 14; entire production period
Description: Cells were seeded at 5×10^5 cells/ml and were allowed to grow for 9 days in the bioreactor before induction with butyrate for the RaMP method. Conditions for this growth period are similar to those described in Example 1 above. On day 10, media containing 0.5 mM sodium butyrate was perfused into the bioreactor. On day 14, media containing 1.0 mM sodium butyrate was perfused into the bioreactor.
Cell viability was monitored daily throughout the production period. Over the entire production period, cell viability remained high and never dropped below 85% for both traditional perfusion and RaMP methods.

[5] = tested on: Chinese hamster ovary (CHO) cell line; assay: Effect of increasing sodium butyrate concentrations on cell viability in perfusion culture; assay type: cell-based
Description: Additional experiments using higher concentrations of sodium butyrate induction were also performed. The cells were seeded and grown similar to the conditions described above. On day 7, […] sodium butyrate was introduced into the perfusion medium. On day 10, the sodium butyrate concentration was increased to 1.0 mM. On day 12, the sodium butyrate concentration was increased to 2.0 mM. On day 14, the sodium butyrate concentration was increased to 4.0 mM and on day 17, the sodium butyrate concentration was increased to 8.0 mM. Throughout the experiment, cell viability was over 85% and the viable cell concentration reached over 4.8×10^7 cells/ml.

[6] = tested on: CHO (Chinese Hamster Ovary) cell-derived cell line; assay: Cell viability with gradual NaB ramping in perfusion culture (summary experiment); assay type: cell-based
Description: In one experiment, 0.5 mM NaB (final concentration) was introduced into the bioreactor by perfusing RBM12.1 medium with 0.5 mM NaB into the bioreactor on day 7 of the production run. On day 10, the bioreactor was perfused with RBM 12.1 medium with 1.0 mM NaB. On day 13, the bioreactor was perfused with RBM12.1 medium with 1.5 mM NaB.

[7] = tested on: Chinese hamster ovary (CHO) cell line; assay: Effect of mode of sodium butyrate addition (bolus vs. gradual ramping) on cell viability; assay type: cell-based
Description: In order to investigate if the method used to deliver sodium butyrate into the cell culture bioreactor would effect cell viability, two modes of delivery were tested: bolus introduction of the desired sodium butyrate concentration and the gradual “ramping” to the desired sodium butyrate concentration. The growth period conditions were identical to those described above.
On Day 9, sodium butyrate was introduced into the bioreactors. In the bolus condition, 2 mM sodium butyrate (final concentration) was added to the medium and perfused into the bioreactor. […] The maximal concentration of sodium butyrate was maintained for the rest of the production run. Cell viability was determined by pulling samples from each bioreactor and trypan blue staining for live/dead cells. After the bolus addition of 2 mM sodium butyrate, the cell viability started to decline (after day 9). The bioreactor for the bolus condition was stopped on day 19 after the viability dropped below 50%. In contrast, the gradual ramping of sodium butyrate from day 9 to day 14 maintained high cell viability (over 85%).

CCCC(=O)[O-].[Na+] [sodium butyrate]
average daily recombinant protein production ([1]; 1 mM then 2 mM sodium butyrate, reached): over 0.6 g/L/day
Average total production ([1]; sodium butyrate 1 mM, day 8 in culture): 102 mg/L/day
Average total production ([1]; sodium butyrate 1 mM, day 9 in culture): 159 mg/L/day
Average total production ([1]; sodium butyrate 1 mM, day 10 in culture): 343 mg/L/day
Average total production ([1]; sodium butyrate 2 mM, day 11 in culture): 381 mg/L/day
Average total production ([1]; sodium butyrate 2 mM, day 12 in culture): 332 mg/L/day
Average total production ([1]; sodium butyrate 2 mM, day 13 in culture): 590 mg/L/day
Average total production ([1]; sodium butyrate 2 mM, day 14 in culture): 498 mg/L/day
Average total production ([1]; sodium butyrate 2 mM, day 15 in culture): 577 mg/L/day
Average total production ([1]; sodium butyrate 2 mM, day 16 in culture): 549 mg/L/day
Average total production ([1]; sodium butyrate 2 mM, day 17 in culture): 526 mg/L/day
Average total production ([1]; sodium butyrate 2 mM, day 18 in culture): 684 mg/L/day
cell growth and cell concentration (recombinant CHO cells [2]): the cells stopped growing and cell concentration declined
cell viability (recombinant CHO cells [3]): less than 45%
cell viability [4]: ≥ 85%
% viable cells ([5]; Na butyrate 0.5 mM, day 7): 97.3%
% viable cells ([5]; Na butyrate 0.5 mM, day 8): 97.8%
% viable cells ([5]; Na butyrate 0.5 mM, day 9): 97.8%
% viable cells ([5]; Na butyrate 1.0 mM, day 10): 97.8%
% viable cells ([5]; Na butyrate 1.0 mM, day 11): 96.6%
% viable cells ([5]; Na butyrate 2.0 mM, day 12): 97.2%
% viable cells ([5]; Na butyrate 2.0 mM, day 13): 95.9%
% viable cells ([5]; Na butyrate 4.0 mM, day 14): 97%
% viable cells ([5]; Na butyrate 4.0 mM, day 15): 96.7%
% viable cells ([5]; Na butyrate 4.0 mM, day 16): 94.2%
% viable cells ([5]; Na butyrate 8.0 mM, day 17): 94.7%
% viable cells ([5]; Na butyrate 8.0 mM, day 18): 93.3%
% viable cells ([5]; Na butyrate 8.0 mM, day 19): 91.5%
% viable cells ([5]; Na butyrate 8.0 mM, day 20): 88.1%
cell viability ([5]; sodium butyrate stepped 0.5 to 8.0 mM, day 7 to day 17, throughout the experiment): over 85%
viable cell concentration ([5]; sodium butyrate stepped 0.5 to 8.0 mM, reached): over 4.8×10^7 cells/ml
cell viability ([6]; 0.5 mM NaB day 7, 1.0 mM day 10, 1.5 mM day 13): did not decrease
cell viability ([6]; gradual ramping of sodium butyrate to desired maximal concentration, compared to bolus addition): over 85%
% viable cells (bolus) ([7]; bolus 2 mM from Day 9, day 10 in culture): 76%
% viable cells (bolus) ([7]; bolus 2 mM from Day 9, day 11 in culture): 73%
% viable cells (bolus) ([7]; bolus 2 mM from Day 9, day 12 in culture): 76%
% viable cells (bolus) ([7]; bolus 2 mM from Day 9, day 13 in culture): 72%
% viable cells (bolus) ([7]; bolus 2 mM from Day 9, day 14 in culture): 72%
% viable cells (bolus) ([7]; bolus 2 mM from Day 9, day 15 in culture): 84%
% viable cells (bolus) ([7]; bolus 2 mM from Day 9, day 16 in culture): 79%
% viable cells (bolus) ([7]; bolus 2 mM from Day 9, day 17 in culture): 76%
% viable cells (bolus) ([7]; bolus 2 mM from Day 9, day 18 in culture): 80%
% viable cells (bolus) ([7]; bolus 2 mM from Day 9, day 19 in culture): 44%
% viable cells (bolus) ([7]; bolus 2 mM sodium butyrate introduced Day 9, day 9 in culture): 89%
cell viability ([7]; bolus 2 mM sodium butyrate, day 19, bioreactor stopped): below 50%
% viable cells (RaMP) ([7]; gradual ramping from 0.5 mM Day 9 to maximal by Day 14, day 10 in culture): 97%
% viable cells (RaMP) ([7]; gradual ramping from 0.5 mM Day 9 to maximal by Day 14, day 11 in culture): 97.6%
% viable cells (RaMP) ([7]; gradual ramping from 0.5 mM Day 9 to maximal by Day 14, day 12 in culture): 96.4%
% viable cells (RaMP) ([7]; gradual ramping from 0.5 mM Day 9 to maximal by Day 14, day 13 in culture): 97.1%
% viable cells (RaMP) ([7]; gradual ramping from 0.5 mM Day 9 to maximal by Day 14, day 14 in culture): 95.7%
cell viability ([7]; gradual ramping of sodium butyrate from day 9 to day 14): over 85%
% viable cells (RaMP) ([7]; maximal concentration maintained after ramping, day 15 in culture): 96.7%
% viable cells (RaMP) ([7]; maximal concentration maintained after ramping, day 16 in culture): 97.2%
% viable cells (RaMP) ([7]; maximal concentration maintained after ramping, day 17 in culture): 96.4%
% viable cells (RaMP) ([7]; maximal concentration maintained after ramping, day 18 in culture): 97%
% viable cells (RaMP) ([7]; maximal concentration maintained after ramping, day 19 in culture): 96.9%
% viable cells (RaMP) ([7]; maximal concentration maintained after ramping, day 20 in culture): 95.8%
% viable cells (RaMP) ([7]; maximal concentration maintained after ramping, day 21 in culture): 95.4%
% viable cells (RaMP) ([7]; maximal concentration maintained after ramping, day 22 in culture): 98.7%
% viable cells (RaMP) ([7]; maximal concentration maintained after ramping, day 23 in culture): 90.6%
% viable cells (RaMP) ([7]; maximal concentration maintained after ramping, day 24 in culture): 89.7%
% viable cells (RaMP) ([7]; maximal concentration maintained after ramping, day 25 in culture): 88.8%
% viable cells (RaMP) ([7]; sodium butyrate from 0.5 mM on Day 9, gradually increased to maximal concentration by Day 14, day 9 in culture): 97.4%
